Patent US11028113B2, “Cyphomycin, compositions and uses thereof” (Wisconsin Alumni Research Foundation, priority 2018, dated 2021)
Converted amounts (≈) assume the structure as drawn.

Tests used:
Type in all cases: cell-based
[1] = system: Aspergillus fumigatus 11628; experiment: In vitro MIC susceptibility testing, broth microdilution (CLSI M38-A2); settings: Aspergillus fumigatus 11628, Triazole resistance phenotype; 50% reduction in growth turbidity at 600 nm; median of replicate assays; read-out: Cyphomycin MIC
Description: (§1) In vitro MIC susceptibility testing. MICs of Cyphomycin for the Candida isolates were determined using a broth microdilution method in accordance with the guidelines presented in Clinical and Laboratory Standards Institute (CLSI) document M27-A3 for Candida and M38-A2 for Aspergillus^36,38. MIC values of cyphomycin were defined as the lowest concentration at which a prominent decrease in growth turbidity (i.e., 50% reduction in growth determined spectrophotometrically) relative to the turbidity of the compound-free control at 600 nm was observed. Median MIC from replicate assays is reported. Results are shown in Table 1 for cyphomycin activity against drug-resistant fungi.

Candida auris B11211 = experiment: In vitro MIC susceptibility testing, broth microdilution (CLSI M27-A3); settings: Candidozyma auris; Candida auris B11211, Amphotericin B resistance phenotype; 50% reduction in growth turbidity at 600 nm; median of replicate assays; read-out: Cyphomycin MIC
Description: as §1

Candida glabrata 4720 = experiment: as above; settings: Nakaseomyces glabratus; Candida glabrata 4720, Echinocandin resistance phenotype; 50% reduction in growth turbidity at 600 nm; median of replicate assays; read-out: Cyphomycin MIC
Description: as §1

CCC(OC1CC(C)(O)C(OC2CCC(OC(=O)C(C)C(O)c3ccc4c(c3)C(=O)C=C(C)C4=O)C(C)O2)C(C)O1)C(C)C(O)C(C)C(O)C(C)C1OC(=O)/C=C/C(C)C(O)CC(O)CCCC(O)CCC(C)C(O)C(=O)C2(O)CC(O)CC(CC(O)CC(O)CC(O)CCCC(O)/C=C/C1C)O2 (stereo not drawn) [Cyphomycin, cyphomycin]
MIC [1]: 0.5 µg/mL (≈ 0.342 µM)
MIC (Candida auris B11211): 4 µg/mL (≈ 2.73 µM)
MIC (Candida glabrata 4720): 0.5 µg/mL (≈ 0.342 µM)
